Measurements taken from patent US5663207A, “Gem-dichlorocyclopropanes as antitumor agents” (priority 1995, dated 1997).
“Also recorded” adds a separate entry of the source.

Biological target: T1, estrogen receptor (Rattus norvegicus, UniProt P06211)
T1 construct: ovariectomized rat uterine cytosolic estrogen receptor preparation; from tissue; host or cells: uterine cytosol of ovariectomized Sprague-Dawley rats (immature rats from Sasco are named as uterus source, mature ovariectomized rats)
T1 sequence (P06211 1-600): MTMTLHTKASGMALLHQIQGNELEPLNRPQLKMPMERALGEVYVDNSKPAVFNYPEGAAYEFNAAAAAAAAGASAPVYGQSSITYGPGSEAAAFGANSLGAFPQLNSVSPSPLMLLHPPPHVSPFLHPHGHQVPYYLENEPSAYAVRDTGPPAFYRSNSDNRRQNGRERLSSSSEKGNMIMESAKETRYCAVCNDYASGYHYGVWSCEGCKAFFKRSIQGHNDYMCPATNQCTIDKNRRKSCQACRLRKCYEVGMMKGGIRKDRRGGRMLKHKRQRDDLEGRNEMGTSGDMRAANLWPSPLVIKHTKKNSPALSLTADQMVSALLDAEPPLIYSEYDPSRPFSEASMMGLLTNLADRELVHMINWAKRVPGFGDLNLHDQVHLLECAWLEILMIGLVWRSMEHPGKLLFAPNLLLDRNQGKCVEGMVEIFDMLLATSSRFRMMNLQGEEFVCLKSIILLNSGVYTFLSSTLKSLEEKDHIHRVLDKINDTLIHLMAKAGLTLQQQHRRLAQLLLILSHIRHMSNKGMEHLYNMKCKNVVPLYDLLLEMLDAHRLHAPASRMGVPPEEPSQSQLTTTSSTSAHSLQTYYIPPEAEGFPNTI
Test: Receptor binding assay: displacement of [3H]-estradiol from rat uterine cytosol
Parameters: species or system rat (Sprague-Dawley)
Settings: for RBA (relative binding affinity): relative to estradiol = 100%, average of duplicate determinations minus nonspecific binding
From the text: The biological evaluation of the test compounds consisted of the in vitro rat cytosolic estradiol receptor binding assay, the in vivo immature mouse uterotrophic (estrogenic) and antiuterotrophic (antiestrogenic) assays, and the in vitro suppression of the proliferation of the ER positive MCF-7 human breast cancer cell line. Estradiol (pure agonist), TAM (agonist in mice and antagonist in MCF-7), MER 25 (pure antagonist) and Analog II (antagonist in mice) were used in the assay as standards.
Vital-free immature female Swiss-Webster mice were obtained at 17-19 days of age from Sasco weighing 8-10 g, and were used in the uterotrophic and antiuterotrophic assays. Immature female Sprague-Dawley rats, obtained at 17-19 days of age from Sasco, weighing 28-33 g, were used as sources of uteri for the estradiol receptor binding assay. Animals were housed in wire topped polycarbonate cages at six animals per cage, with the environment controlled at 25° C. and a 12 h light/dark cycle. The animals received a diet of Wayne Lab Blox rodent chow and tap water ad libitum.
The RBAs of the test compounds were determined by the displacement of [^3 H]-estradiol in vitro, as described previously (DAY, B. W., […], R. A., JAIN, P., PENTO, J. T., MOUSISSIAN, G. K. AND MEYER, K. L. (1991), "Synthesis and biological evaluation of a series of 1,1-dichloro-2,2,3-triarylcyclopropanes as pure antiestrogens", Journal of Medicinal Chemistry, 34, 842; KORENMAN, S. G. (1969), "Comparative binding affinity of estrogens and its relation to estrogenic potency", Steroid, 13, 163). Mature female Sprague-Dawley rats were ovariectomized at least two weeks prior to the receptor binding experiment. Each test compound was assayed at three concentrations in duplicate over a range of 10^-3 -10^-5 M and 10^-6 -10^-8 M for the estradiol standard. The non-specific binding was determined by a parallel incubation of each compound with the addition of diethylstilbestrol to give a final concentration of 2×10^-5 M DES which was sufficient to saturate all the estrogen receptors present in the cytosolic fraction. Specific displacement for each compound was determined by subtraction of nonspecific displacement from total displacement. The [^3 H]-estradioldisplacement curve for each test compound was determined by linear repression analysis and plotted graphically. The relative binding affinity for each compound was calculated (BLISS, C.I. (1967), "The statistics in biology", McGraw Hill, Inc: New York).
^a Determined by competitive radiometric binding assay with rat
uterine cytosol as a source of receptor, [^3 H]estradiol as tracer,
and dextrancoated charcoal as absorbant for free ligand.
^c Binding affinities are expressed relative to that of estradiol =
100% (RBA = relative binding affinity) and are the average of duplicate
determinations minus nonspecific binding.
The relative binding affinities (RBAs), as determined by the competitive radiometric binding assay and measured by [^3 H]-estradiol displacement from the ovariectomized rat uterine cytosolic estrogen receptor preparation, after subtracting non-specific receptor binding, were calculated for all of the synthesized target compounds, TAM, MER 25, Analog II, and estradiol. The displacement curves were plotted as percent receptor-bound [^3 H]-estrodiol versus concentration of test compounds (not shown) and the receptor binding affinity of each compound is presented in Table II.

| SMILES | RBA (relative binding affinity) [%] | RBA ranking (in words) (among the compounds tested) |
| --- | --- | --- |
| CC(=O)Oc1ccc([C@H]2[C@@H](c3ccccc3)C2(Cl)Cl)cc1 (relative stereo) [Compound 10, 1,1-Dichloro-cis-2-(p-acetoxyphenyl)-3-phenylcyclopropane] | 0.07 |  |
| Oc1ccc(C2(c3ccc(O)cc3)C(Cl)(Cl)C23CCCCC3)cc1 [Compound 30, 1,1-Dichloro-2,2-bis-(p-hydroxyphenyl)-spiro[2.5]octane] | 0.62 | comparable to tamoxifen; also recorded: the highest |
